Data published in US20220378923A1, “BET DEGRADER” (KYOWA KIRIN CO., LTD., priority 2019, published 2022).

Key:
[1] = system: MYC mRNA expression in SU-DHL-4 cells; experiment: Suppressive effect on MYC mRNA expression (Test Example 2); assay type: cell-based, human; conditions: test compound 100 nmol/L, 6 hours, qRT-PCR corrected by ACTB, GAPDH; for Suppression Rate of MYC mRNA Expression (%): HPRT1
Outline: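 SU-DHL-4 cells were treated for 6 h at 37 °C with compound (0.1% DMSO final). MYC mRNA was measured by TaqMan qRT-PCR and normalised to the geometric mean of ACTB, GAPDH and HPRT1. Suppression was calculated relative to untreated wells.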

[2] = molecular target: T1, interaction between BRD2 and E3 ligase DCAF16 (Homo sapiens, UniProt P25440); experiment: Verification of BET-DCAF16 interaction, comparative test with known compounds (Test Example 8); assay type: cell-based; conditions: test compound 1.0 μmol/L; HEK293 cells expressing Nluc-BRD2 and DCAF16-HaloTag; MLN4924 instead of bortezomib; substrate diluted 200-fold
T1 construct: expressed in transfected cells; host or cells: HEK293
Protocol: Cultured HEK293 cells were washed with DPBS, no calcium, no magnesium (DPBS: Code No. 14190144, Thermo Fisher Scientific) and harvested using TrypLE™ Express Enzyme (1×), phenol red (TrypLE: Code No. 12605036, Thermo Fisher Scientific), and prepared to be 4.0×10^5 cells/mL in DMEM. A volume of 12 mL of the cell suspension was seeded in a Falcon® 100 mm×20 mm cell culture dish and cultured in a carbon dioxide gas incubator at 37° C. for 6 hours. For one dish, 12 μg of pFC27K_DCAF16, 0.12 μg of p FN31A_BRD2, 48 μL of FuGENE® HD Transfection Reagent (Code No. E2312, Promega) were added to 600 μL of Opti-MEM™ I Reduced Serum Medium, no phenol red (Opti-MEM: Code No. 11058021, Thermo Fisher Scientific) and mixed. The mixture was allowed to stand for 15 minutes and added to HEK293 cells. After 20 hours, the cells were washed with DPBS, no calcium, no magnesium, harvested from the dish using TrypLE, and then neutralized in DMEM. After centrifugation, the supernatant was discarded, and the cells were prepared to be 2.2×10^5 cells/mL using Opti-MEM containing 4% FBS. HaloTag® NanoBRET™ 618 Ligand contained in NanoBRET™ Nano-Glo® Detection System (Code No. N1662, Promega) and bortezomib as a proteasome inhibitor were added to be a 1000-fold dilution. In addition, a group was prepared to which DMSO was added instead of HaloTag® NanoBRET™ 618 Ligand. 90 μL of the cell suspension was seeded in CulturPlate-96 (Code No. 6005688, PerkinElmer), and allowed to stand in a carbon dioxide gas incubator at 37° C. for 30 minutes. A volume of 10 mmol/L of a solution of the test compound in DMSO was adjusted to be 100 μmol/L with Opti-MEM, 10 μL of the solution was added to each well, and then the mixture was allowed to stand in a carbon dioxide gas incubator at 37° C. for 2 hours. At this time, all the groups were prepared so that the final concentration of DMSO was 0.1 vol % including the group to which the test compound was not added. NanoBRET™ Nano-Glo® Substrate included in the NanoBRET™ Nano-Glo® Detection System was diluted 100-fold with Opti-MEM. After adding 25 μL of the dilution each and stirring for 30 seconds, measurement was performed with an Emission Filter of 460 nm and 620 nm using EnVision (PerkinElmer). The BRET ratio of 10 μmol/L for each test compound was calculated using the following formula. The experiment was performed by n=3 and the average value was calculated.
BRET ratio={(A/B)−(C/D)}×1000 • A: value at 620 nm filter of the well with addition of test compound and 618 Ligand • B: value at 460 nm filter of the well with addition of test compound and 618 Ligand • C: value at 620 nm filter of the well without addition of test compound or 618 Ligand • D: value at 460 nm filter of the well without addition of test compound or 618 Ligand
For comparison with the known comparative compound 1, the enhancement of the BET-DCAF16 interaction was verified by the same method as in test example 7. However, for the purpose of system optimization, bortezomib was changed to Neddylation inhibitor MLN4924 (Code No. HY-10484, MedChem Express), and the dilution ratio of NanoBRET™ Nano-Glo® Substrate was set to 200-fold. The BRET ratio of 1.0 μmol/L of each test compound was calculated, and the results are shown as in Table 23 below.

T1 sequence (P25440 whole entry): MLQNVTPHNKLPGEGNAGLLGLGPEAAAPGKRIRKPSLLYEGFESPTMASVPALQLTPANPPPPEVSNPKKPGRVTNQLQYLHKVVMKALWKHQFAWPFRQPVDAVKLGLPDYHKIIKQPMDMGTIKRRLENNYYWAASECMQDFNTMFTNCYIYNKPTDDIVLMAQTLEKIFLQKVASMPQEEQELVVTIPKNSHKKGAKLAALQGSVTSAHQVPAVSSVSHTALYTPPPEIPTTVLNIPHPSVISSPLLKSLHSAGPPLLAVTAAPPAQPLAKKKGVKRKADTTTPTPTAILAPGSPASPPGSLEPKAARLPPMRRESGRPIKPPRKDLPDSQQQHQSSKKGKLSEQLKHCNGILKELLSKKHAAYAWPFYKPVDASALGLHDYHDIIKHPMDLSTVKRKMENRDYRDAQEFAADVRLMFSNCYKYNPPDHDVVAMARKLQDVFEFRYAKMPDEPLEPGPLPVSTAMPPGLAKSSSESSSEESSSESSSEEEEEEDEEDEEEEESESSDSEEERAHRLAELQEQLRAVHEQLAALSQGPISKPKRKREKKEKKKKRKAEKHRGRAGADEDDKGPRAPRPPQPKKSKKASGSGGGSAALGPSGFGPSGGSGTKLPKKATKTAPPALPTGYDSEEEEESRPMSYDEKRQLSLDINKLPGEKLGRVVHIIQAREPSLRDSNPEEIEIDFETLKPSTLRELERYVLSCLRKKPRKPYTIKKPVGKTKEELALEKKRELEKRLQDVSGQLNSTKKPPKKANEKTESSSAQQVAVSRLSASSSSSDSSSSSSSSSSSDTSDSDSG
T1 sequence (Q9NXF7 whole entry partner): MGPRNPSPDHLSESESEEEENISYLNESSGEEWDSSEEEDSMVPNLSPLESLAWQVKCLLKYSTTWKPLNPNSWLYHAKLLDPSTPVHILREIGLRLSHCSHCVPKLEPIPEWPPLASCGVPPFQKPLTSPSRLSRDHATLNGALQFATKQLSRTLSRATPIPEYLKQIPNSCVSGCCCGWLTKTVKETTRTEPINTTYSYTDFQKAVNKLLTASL

BRET Ratio [2]	Compound	Suppression Rate of MYC mRNA Expression (%) [1] [%]	inhibition at 0.1 µM ([1]; Homo sapiens, HPRT1, read-out: Suppression Rate of MYC mRNA Expression (%)) [%]
9.59	CCC(=O)N1c2ccccc2[C@H](Nc2ccc(NC(=O)CCCC(=O)Nc3ccc(Cn4c(C(=O)OCCN(C)C)cc5c4CCCC5=O)cc3)cc2)C[C@@H]1C [Compound 15a, 2-(Dimethylamino)ethyl 1-(4-(5-((4-(((2S,4R)-2-methyl-1-propionyl-1,2,3,4-tetrahydroquinolin-4-yl)amino)phenyl)amino)-5-oxopentanamide)benzyl)-4-oxo-4,5,6,7-tetrahydro-1H-indole-2-carboxylate]	97.6	–
12.43	CCC(=O)N1c2ccccc2[C@H](Nc2ccc(-n3cc(CNC(=O)c4ccc(Cn5c(CC)cc6c5CCCC6=O)cc4)nn3)cc2)C[C@@H]1C [Compound 15f, 4-((2-Ethyl-4-oxo-4,5,6,7-tetrahydro-1H-indol-1-yl)methyl)-N-((1-(4-(((2S,4R)-2-methyl-1-propionyl-1,2,3,4-tetrahydroquinolin-4-yl)amino)phenyl)-1H-1,2,3-triazol-4-yl)methyl)benzamide]	–	97.2

Compound	BRET Ratio [2]	Suppression Rate of MYC mRNA Expression (%) [1] [%]	inhibition at 0.1 µM ([1]; Homo sapiens, HPRT1, read-out: Suppression Rate of MYC mRNA Expression (%)) [%]
CCNC(=O)C[C@@H]1N=C(c2ccc(SCCCCSc3ccc(C4=N[C@@H](CC(=O)NCC)c5nnc(C)n5-c5ccc(OC)cc54)cc3)cc2)c2cc(OC)ccc2-n2c(C)nnc21 [compound 1, 2,2′-((4S,4'S)-6,6′-((butane-1,4-diylbis(sulfanediyl))bis(4,1-phenylene))bis(8-methoxy-1-methyl-4H-benzo[f][1,2,4]triazolo[4,3-a][1,4]diazepine-6,4-diyl))bis(N-ethylacetamide), reference compound]	1.93	61.7	–
